In patent US8106055B2, “Substituted amide compounds” (Gruenenthal GmbH, priority 2007, dated 2012):

Experiments:
[1] = target: T1, human bradykinin 1 receptor (B1R) (Homo sapiens, UniProt P46663); test: Functional investigation on the human bradykinin 1 receptor (B1R), Ca2+ FLIPR assay in CHO K1 hB1R cells; type: cell-based; conditions: test substance 10 μM, Ca2+ FLIPR, CHO K1 hB1R cells; for inhibition at 10 µM: CHO-K1, B1R antagonism human, read-out: B1R Ant. h [10 μM] % Inhibition; for B1R Ant. h [10 μM] % Inhibition: B1R antagonism human
T1 construct: expressed in transfected cells; host or cells: CHO K1 cells
T1 sequence (P46663 1-353): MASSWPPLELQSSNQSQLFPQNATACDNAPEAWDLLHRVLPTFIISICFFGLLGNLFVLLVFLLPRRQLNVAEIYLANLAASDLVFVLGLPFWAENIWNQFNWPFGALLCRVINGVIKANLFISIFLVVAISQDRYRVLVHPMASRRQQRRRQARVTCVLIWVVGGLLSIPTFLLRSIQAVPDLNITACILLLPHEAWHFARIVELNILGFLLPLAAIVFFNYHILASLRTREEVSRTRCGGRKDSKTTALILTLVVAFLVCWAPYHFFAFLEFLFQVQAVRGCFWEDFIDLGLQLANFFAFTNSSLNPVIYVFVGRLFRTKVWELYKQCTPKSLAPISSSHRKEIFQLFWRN
In short: (§1)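 Peak Ca2+-dependent fluorescence in B1R-transfected CHO K1 cells measures antagonism of an EC80 agonist challenge given 10-20 min after compound. Agonist is Lys-Des-Arg9-bradykinin for human, Des-Arg9-bradykinin for rat receptor.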

[2] = target: T2, bradykinin 1 receptor (B1R) of the rat (Rattus norvegicus, UniProt P97583); test: Functional investigation on the rat bradykinin 1 receptor (B1R), Ca2+ FLIPR assay in CHO K1 rB1R cells; type: cell-based; conditions: test substance 10 μM, Ca2+ FLIPR, CHO K1 rB1R cells; for inhibition at 10 µM: CHO-K1, B1R antagonism rat, read-out: B1R Ant. r [10 μM] % Inhibition; for B1R Ant. r [10 μM] % Inhibition: B1R antagonism rat
T2 construct: expressed in transfected cells; host or cells: CHO K1 cells
T2 sequence (P97583 1-337): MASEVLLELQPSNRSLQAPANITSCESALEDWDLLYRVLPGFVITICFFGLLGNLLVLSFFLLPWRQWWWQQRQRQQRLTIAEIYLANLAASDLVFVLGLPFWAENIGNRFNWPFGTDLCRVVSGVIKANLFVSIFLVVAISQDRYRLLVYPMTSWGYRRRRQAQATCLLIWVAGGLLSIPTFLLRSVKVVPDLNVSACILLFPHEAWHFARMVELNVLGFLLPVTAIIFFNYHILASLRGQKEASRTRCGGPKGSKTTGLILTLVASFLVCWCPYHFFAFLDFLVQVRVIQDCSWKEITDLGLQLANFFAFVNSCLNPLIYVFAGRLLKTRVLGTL
In short: as §1

Structure (SMILES) | inhibition at 10 µM [1] | inhibition at 10 µM [2] | B1R Ant. h [10 μM] % Inhibition [1] | B1R Ant. r [10 μM] % Inhibition [2]
CN(C)C(c1cccs1)C1CCC(CNC(=O)COCC2CCCN(S(=O)(=O)c3ccccc3)C2)CC1 (stereo not shown) [Example 101, N-((4-((dimethylamino)(thiophen-2-yl)methyl)cyclohexyl)methyl)-2-((1-(phenylsulfonyl)piperidin-3-yl)methoxy)acetamide] | 0% | 27% | – | –
COc1ccc(S(=O)(=O)N2CCCCC2COCC(=O)NCCC2CCC(C(c3cccs3)N(C)C)CC2)cc1OC (stereo not shown) [Example 120, 2-((1-(3,4-dimethoxyphenylsulfonyl)piperidin-2-yl)methoxy)-N-(2-(4-((dimethylamino)(thiophen-2-yl)methyl)cyclohexyl)ethyl)acetamide] | -12% | -14% | – | –
CN(C)C(CCc1ccccc1)C1CCC(CNC(=O)COC2CCN(S(=O)(=O)c3ccccc3)CC2)CC1 (stereo not shown) [Example 578] | – | – | −14% | 12%
CN(C)C(CCc1ccccc1)C1CCC(CNC(=O)COC2CCN(S(=O)(=O)c3ccc(F)cc3)C2)CC1 (stereo not shown) [Example 574] | – | – | 2% | 26%
CN(C)C(c1ccc(F)cc1)C1CCC(CCNC(=O)COC2CCN(S(=O)(=O)c3ccccc3)CC2)CC1 (stereo not shown) [Example 553] | – | – | −21% | −14%
CN(C)C(c1cccc(F)c1)C1CCC(CNC(=O)COCC2CCCN2S(=O)(=O)c2ccc(Cl)c(Cl)c2)CC1 (stereo not shown) [Example 119, 2-((1-(3,4-dichlorophenylsulfonyl)pyrrolidin-2-yl)methoxy)-N-((4-((dimethylamino)(3-fluorophenyl)methyl)cyclohexyl)methyl)acetamide] | 67% | -6% | – | –
CN(C)C(c1cccs1)C1CCC(CNC(=O)COC2CCN(S(=O)(=O)c3ccc(F)cc3)C2)CC1 (stereo not shown) [Example 97, N-((4-((dimethylamino)(thiophen-2-yl)methyl)cyclohexyl)methyl)-2-(1-(4-fluorophenylsulfonyl)pyrrolidin-3-yloxy)acetamide] | 1% | 28% | – | –
COc1cc(C)c(S(=O)(=O)N2CCC(CCOCC(=O)NCC3CCC(C(c4cccs4)N(C)C)CC3)CC2)c(C)c1C (stereo not shown) [Example 131, N-((4-((dimethylamino)(thiophen-2-yl)methyl)cyclohexyl)methyl)-2-(2-(1-(4-methoxy-2,3,6-trimethylphenylsulfonyl)piperidin-4-yl)ethoxy)acetamide] | 15% | -20% | – | –
CCN(CCOCC(=O)NCC1CCC(C(c2cccc(F)c2)N(C)C)CC1)S(=O)(=O)c1c(C)cc(OC)c(C)c1C (stereo not shown) [Example 117, N-((4-((dimethylamino)(3-fluorophenyl)methyl)cyclohexyl)methyl)-2-(2-(N-ethyl-4-methoxy-2,3,6-trimethylphenylsulfonamido)ethoxy)acetamide] | 76% | 77% | – | –
COc1ccc(S(=O)(=O)N2CCCCC2COCC(=O)NCCC2CCC(C(c3cccc(F)c3)N(C)C)CC2)cc1OC (stereo not shown) [Example 581] | – | – | 2% | 8%
COc1ccc(S(=O)(=O)N(C)CCOCC(=O)NCC2CCC(C(CCc3ccccc3)N(C)C)CC2)cc1OC (stereo not shown) [Example 571] | – | – | −10% | 15%
CN(C)C(c1ccc(F)cc1)C1CCC(CNC(=O)COC2CCN(S(=O)(=O)c3ccccc3)CC2)CC1 (stereo not shown) [Example 568] | – | – | −20% | 12%
COc1ccc(S(=O)(=O)N2CCCCC2COCC(=O)NCC2CCC(C(c3ccccc3)N(C)C)CC2)c(OC)c1 (stereo not shown) [Example 106, 2-((1-(2,4-dimethoxyphenylsulfonyl)piperidin-2-yl)methoxy)-N-((4-((dimethylamino)(phenyl)methyl)cyclohexyl)methyl)acetamide] | 4% | 13% | – | –
Cc1cc(C)c(S(=O)(=O)N(C)CCOCC(=O)NC2CCC(C(c3ccccc3)N(C)C)CC2)c(C)c1 (stereo not shown) [Example 63, N-(4-((dimethylamino)(phenyl)methyl)cyclohexyl)-2-(2-(N,2,4,6-tetramethylphenylsulfamido)ethoxy)acetamide] | – | – | 92% | 8%
COc1cc(C)c(S(=O)(=O)N2CCC(CCOCC(=O)NC3CCC(C(c4cccc(F)c4)N(C)C)CC3)CC2)c(C)c1C (stereo not shown) [Example 118, N-(4-((dimethylamino)(3-fluorophenyl)methyl)cyclohexyl)-2-(2-(1-(4-methoxy-2,3,6-trimethylphenylsulfonyl)piperidin-4-yl)ethoxy)acetamide] | 23% | -4% | – | –
COc1ccc(S(=O)(=O)N2CCC(OCC(=O)NCC3CCC(C(CCc4ccccc4)N(C)C)CC3)C2)cc1OC (stereo not shown) [Example 566] | – | – | 1% | 22%
COc1ccc(S(=O)(=O)N2CCCC2COCC(=O)NCC2CCC(C(CCc3ccccc3)N(C)C)CC2)cc1 (stereo not shown) [Example 572] | – | – | 50% | 62%
COc1cc(C)c(S(=O)(=O)N(CCOCC(=O)NCC2CCC(C(CCc3ccccc3)N(C)C)CC2)Cc2ccccc2)c(C)c1C (stereo not shown) [Example 562] | – | – | 91% | 23%
COc1ccc(S(=O)(=O)N2CCCCC2COCC(=O)NCC2CCC(C(CCc3ccccc3)N(C)C)CC2)c(OC)c1 (stereo not shown) [Example 486] | – | – | 28% | 20%
COc1cc(C)c(S(=O)(=O)N2CCC(OCC(=O)NCC3CCC(C(CCc4ccccc4)N(C)C)CC3)C2)c(C)c1 (stereo not shown) [Example 565] | – | – | 102% | 104%
CN(C)C(c1ccccc1)C1CCC(CNC(=O)COCCN(C)S(=O)(=O)c2ccc(F)cc2)CC1 (stereo not shown) [Example 112, N-((4-((dimethylamino)(phenyl)methyl)cyclohexyl)methyl)-2-(2-(4-fluoro-N-methylphenylsulfonamido)ethoxy)acetamide] | -1% | 5% | – | –
COc1ccc(S(=O)(=O)N2CCCC2COCC(=O)NCC2CCC(C(c3cccs3)N(C)C)CC2)cc1 (stereo not shown) [Example 105, N-((4-((dimethylamino)(thiophen-2-yl)methyl)cyclohexyl)methyl)-2-((1-(4-methoxyphenylsulfonyl)pyrrolidin-2-yl)methoxy)acetamide] | 33% | 24% | – | –
CN(C)C(c1cccc(F)c1)C1CCC(CCNC(=O)COCCC2CCN(S(=O)(=O)c3ccccc3)CC2)CC1 (stereo not shown) [Example 543] | – | – | −31% | 15%
